Experimental data taken from patent US6872805B2 (Bristol-Myers Squibb Company, priority 2000, dated 2005).
pEC50, pIC50: −log10 of the molar value. Where two headings read alike, the source gives them in different places.

Experiments:
[1] = target: HCV NS3/4A protease complex (Hepatitis C virus genotype 1a, UniProt P27958, C1454S/C1711G); experiment: Recombinant HCV NS3/4A protease complex FRET peptide assay (strain not stated); format: biochemical; details: strain not stated, activity ranges
Text: The purpose of this in vitro assay was to measure the inhibition of HCV NS3 protease complexes, derived from the BMS, H77C or J416S strains, as described below, by compounds of the present invention.
Serum from an HCV-infected patient was obtained from Dr. T. Wright, San Francisco Hospital. An engineered full-length cDNA template of the HCV genome (BMS strain) was constructed from DNA fragments obtained by reverse transcription-PCR (RT-PCR) of serum RNA and using primers selected on the basis of homology between other genotype 1a strains. […] The infectious clones, H77C (1a genotype) and J4L6S (1b genotype) were obtained from R. Purcell (NIH) and the sequences are published in genebank (AAB67036, see Yanagi, M., Purcell, R. H., Emerson, S. U. and Bukh, J. Proc. Natl. Acad. Sci. U.S.A. 94(16),8738-8743 (1997); AF054247, see Yanagi, M., St Claire, M., Shapiro, M., Emerson, S. U., Purcell, R. H. and Bukh, J, Virology 244 (1), 161-172. (1998)).
The BMS, H77C and J4L6S strains were used for production of recombinant NS3/4A protease complexes. DNA encoding the recombinant HCV NS3/4A protease complex (amino acid 1027 to 1711) for these strains were manipulated as described by P. Gallinari et al. (see Gallinari P, Paolini C, Brennan D, Nardi C, Steinkuhler C, De Francesco R. Biochemistry. 38(17):5620-32, (1999)). Briefly, a three-lysine solubilizing tail was added at the 3′-end of the NS4A coding region. The cysteine in the P1 position of the NS4A-NS4B cleavage site (amino acid 1711) was changed to a glycine to avoid the proteolytic cleavage of the lysine tag. Furthermore, a cysteine to serine mutation was introduced by PCR at amino acid position 1454 to prevent the autolytic cleavage in the NS3 helicase domain. The variant DNA fragment was cloned in the pET21b bacterial expression vector and the NS3/4A complex was expressed in E. coli BL21 (DE3) following the protocol described by P. Gallinari et al. (see Gallinari P, Brennan D, Nardi C, Brunetti M, Tomei L, Steinkuhler C, De Francesco R., J Virol. 72(8):6758-69 (1998)) with modifications. Briefly, NS3/4A expression was induced with 0.5 mM IPTG for 22 hr at 20° C. […] The cells were resuspended in lysis buffer (10 mL/g) consisting of 25 mM HEPES, pH 7.5, 20% glycerol, 500 mM NaCl, 0.5% Triton-X100, 1 ug/ml lysozyme, 5 mM MgCl2, 1 ug/ml DNaseI 5 mM β-Mercaptoethanol (βME), Protease inhibitor—EDTA free, homogenized and incubated for 20 mins at 4° C. The homogenate was sonicated and clarified by ultra-centrifugation at 235000 g for 1 hr at 4° C. Imidazole was added to the supernatant to a final concentration of 15 mM and the pH adjusted to 8.0. The crude protein extract was loaded on a Ni-NTA column pre-equilibrated with buffer B (25 mM HEPES, pH 8.0, 20% glycerol, 500 mM NaCl, 0.5% Triton-X100, 15 mM imidazole, 5 mM βME). The sample was loaded at a flow rate of 1 mL/min. The column was washed with 15 column volumes of buffer C (same as buffer B except with 0.2% Triton-X100). The protein was eluted with 5 column volumes of 200 mM Imidazole in buffer.
NS3/4A protease complex-containing fractions were pooled and loaded on a desalting column Superdex-S200 pre-equilibrated with buffer D (25 mM HEPES, pH 7.5, 20% glycerol, 300 mM NaCl, 0.2% Triton-X100, 10 mM βME). Sample was loaded at a flow rate of 1 mL/min. NS3/4A protease complex-containing fractions were pooled and concentrated to approximately 0.5 mg/ml.

[2] = test system: HCV replicon in Huh7 cells; experiment: HCV replicon cell-based assay; parameters: species or system HCV strain 1B; details: HCV replicon, Huh7 cells, 4 days, activity ranges, read-out: EC50
Text: An HCV replicon whole cell system was established as described by Lohmann V, Korner F, Koch J, Herian U, Theilmann L, Bartenschlager R., Science 285(5424):110-3 (1999). This system enabled us to evaluate the effects of our HCV Protease compounds on HCV RNA replication. Briefly, using the HCV strain 1B sequence described in the Lohmann paper (Assession number:AJ238799), an HCV cDNA was generated encoding the 5′ internal ribosome entry site (IRES), the neo gene, the EMCV-IRES and the HCV nonstructural proteins, NS3-NS5B, and 3′ NTR. […] Resulting cell lines were characterized for positive and negative RNA production and protein production over time.
Huh7 cells, constitutively expressing the HCV replicon, were grown in DMEM containing 10% FCS (Fetal calf serum) and 1 mg/ml G418 (Gibco-BRL). Cells were seeded the night before (1.5×10^4 cells/well) in 96-well tissue-culture sterile plates. Compound was prepared in DMEM containing 4% FCS, 1:100 Penicillin/Streptomysin, 1:100 L-glutamine and 0.5% DMSO. Compound/DMSO mixes were added to the cells and incubated for 4 days at 37° C. After 4 days, cells were either lyzed using the Rneasy kit (Qiagen) to isolate and purify RNA for an EC50 determination or assessed for cytotoxicity using alamar Blue (Trek Diagnotstic Systems) for a CC50 reading. For an EC50 determination, purified total RNA was normalized using RiboGreen (Jones L J, Yue S T, Cheung C Y, Singer V L, Anal. Chem., 265(2):368-74 (1998)) and relative quantitation of HCV RNA expression assessed using the Taqmann procedure (Kolykhalov A A, Mihalik K, Feinstone S M, Rice C M, Journal of Virology 74, 2046-2051 (2000)). Briefly, RNA made to a volume of 5 μl (≦1 ng) was added to a 20 μl Ready-Mix containing the following: 5×EZ rTth buffer, 3 mM MnOAc2, 3 mM dNTPs, 200 nM forward primer, 600 nM reverse primer, 100 nM probe and rTth polymerase. Samples containing known concentrations of HCV RNA transcript were run as standards. Using the following cycling protocol (95° C., 1 min; 60° C., 0.5 min; 95° C., 2 min; 40 cycles of 94° C., 0.5 min, 60° C.; 1 min; and completing with 60° C., 10 min), HCV RNA expression was quantitated as described in the Perkin Elmer manual. The toxicity of compound (CC50) was determined by adding 1/10th volume of alamar Blue to the media incubating the cells. After 4 hr, the fluorescence signal from each well was read, with an excitation wavelength at 530 nm and an emission wavelength of 580 nm, using the Cytofluor Series 4000 (Perspective Biosystems).

[3] = IC50, NS3/4A protease enzyme assay

Sequence of HCV NS3/4A protease complex (P27958 1027-1711, stated change not applied): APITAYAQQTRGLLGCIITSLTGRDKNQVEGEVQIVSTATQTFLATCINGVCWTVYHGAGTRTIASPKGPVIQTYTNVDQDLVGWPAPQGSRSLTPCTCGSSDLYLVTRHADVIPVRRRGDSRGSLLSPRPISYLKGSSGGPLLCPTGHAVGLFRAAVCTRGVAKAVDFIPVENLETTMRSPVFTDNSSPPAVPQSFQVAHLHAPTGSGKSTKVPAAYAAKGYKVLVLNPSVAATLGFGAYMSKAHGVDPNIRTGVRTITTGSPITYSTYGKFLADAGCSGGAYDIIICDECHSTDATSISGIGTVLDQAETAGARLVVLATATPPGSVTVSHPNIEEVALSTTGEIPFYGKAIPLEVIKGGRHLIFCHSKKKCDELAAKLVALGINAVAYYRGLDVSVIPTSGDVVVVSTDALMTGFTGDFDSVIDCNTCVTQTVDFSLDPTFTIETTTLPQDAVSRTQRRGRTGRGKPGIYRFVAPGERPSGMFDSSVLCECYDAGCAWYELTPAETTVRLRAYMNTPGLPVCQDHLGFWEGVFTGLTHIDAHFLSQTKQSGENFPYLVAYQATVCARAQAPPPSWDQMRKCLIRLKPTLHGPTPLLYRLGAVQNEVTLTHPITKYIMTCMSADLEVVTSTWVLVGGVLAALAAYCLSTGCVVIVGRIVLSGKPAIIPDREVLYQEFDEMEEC
Sequence of HCV NS3/4A protease complex (P27958 1027-1711, stated change not applied): as above

Question: How did the pIC50 ([1]; NS3/4A protease enzyme assay, read-out: IC50) turn out when “1-[2S-(4-fluoro-benzenesulfonylamino)-3,3-dimethyl-butyryl]-4R-(7-methoxy-2-phenylquinolin-4-yloxy)-pyrrolidine-2S-carboxylic acid (1R-cyclopropanesulfonylaminocarbonyl -2S-vinyl-cyclopropyl)amide [Compound 119]” was run?
Answer: > 7.30

Question: And the pEC50 [2]?
Answer: > 6.30

Question: What does the source list for `CCC1C[C@]1(NC(=O)[C@@H]1C[C@@H](Oc2cc(-c3ccccc3)nc3cc(OC)ccc23)CN1C(=O)[C@@H](NC(=O)OC(C)(C)C)C(C)(C)C)C(=O)NS(=O)(=O)C1CC1` (stereo in doubt) [Compound 2, {1-[2-(1-cyclopropanesulfonylamino-carbonyl-2-ethylcyclopropylcarbamoyl)-4-(7-methoxy-2-phenyl-quinolin-4-yloxy)-pyrrolidine-1-carbonyl]-2,2-dimethylpropyl}carbamic acid tert-butyl ester]?
Answer: pIC50 [1, 3]: > 7.30; pEC50 ([2]; Hepatitis C virus, Huh-7, 96 h): > 7.30

Question: With `CCC1C[C@]1(NC(=O)[C@@H]1C[C@@H](Oc2cc(-c3ccccc3)nc3cc(OC)ccc23)CN1C(=O)[C@@H](NC(=O)OC(C)(C)C)C(C)C)C(=O)NS(=O)(=O)C1CC1` (stereo in doubt) [Compound 3, {1-[2-(1-cyclopropanesulfonylaminocarbonyl-2-ethylcyclopropylcarbamoyl)-4-(7-methoxy-2-phenylquinolin-4-yloxy)pyrrolidine-1-carbonyl]-2-methylpropyl}carbamic acid tert-butyl ester] as the compound, how does the pIC50 [1, 3] read?
Answer: > 7.30

Question: And the pEC50 ([2]; Hepatitis C virus, Huh-7, 96 h)?
Answer: > 7.30

Question: With `CCC1C[C@]1(NC(=O)[C@@H]1C[C@@H](Oc2cc(-c3ccccc3)nc3cc(OC)ccc23)CN1C(=O)[C@@H](NC(=O)CC1CC1)C(C)C)C(=O)NS(=O)(=O)C1CC1` (stereo in doubt) [Compound 5, 1-[2-(2-cyclopropylacetylamino)-3-methylbutyryl]-4-(7-methoxy-2-phenylquinolin-4-yloxy)pyrrolidine-2-carboxylic acid (1-cyclopropanesulfonylaminocarbonyl-2-ethylcyclopropyl)amide] as the compound, how does the pIC50 [1, 3] read?
Answer: > 7.30

Question: What about the pEC50 ([2]; Hepatitis C virus, Huh-7, 96 h) of the same compound?
Answer: > 7.30

Question: Which results are given for `CCCNC(=O)N[C@H](C(=O)N1C[C@H](Oc2cc(-c3ccccc3)nc3cc(OC)ccc23)C[C@H]1C(=O)N[C@]1(C(=O)NS(=O)(=O)C2CC2)CC1CC)C(C)C` (stereo in doubt) [Compound 8, 4-(7-methoxy-2-phenylquinolin-4-yloxy)-1-[3-methyl-2-(3-propylureido)butyryl]pyrrolidine-2-carboxylic acid (1-cyclopropanesulfonylaminocarbonyl-2-ethylcyclopropyl)amide]?
Answer: pIC50 [1, 3]: > 7.30; pEC50 ([2]; Hepatitis C virus, Huh-7, 96 h): > 7.30

Question: Which results are given for `C=CC1C[C@]1(NC(=O)[C@@H]1C[C@@H](Oc2cc(-c3ccccc3)nc3cc(OC)ccc23)CN1C(=O)[C@@H](NC(=O)OC(C)(C)C)C(C)(C)C)C(=O)NS(=O)(=O)C1CC1` (stereo in doubt) [Compound 10, {1-[2-(1-Cyclopropanesulfonylaminocarbonyl-2-vinylcyclopropylcarbamoyl)-4-(7-methoxy-2-phenylquinolin-4-yloxy)-pyrrolidine-1-carbonyl]-2,2-dimethylpropyl}carbamic acid tert-butyl ester]?
Answer: pIC50 [1, 3]: > 7.30; pEC50 ([2]; Hepatitis C virus, Huh-7, 96 h): > 7.30

Question: With `C=CC1C[C@]1(NC(=O)[C@@H]1C[C@@H](Oc2cc(-c3ccccc3)nc3cc(OC)ccc23)CN1C(=O)[C@@H](NC(=O)OC(C)(C)C)C(C)(C)C)C(=O)NS(=O)(=O)C1CCC1` (stereo in doubt) [Compound 11, {1-[2-(1-Cyclobutanesulfonylaminocarbonyl-2-vinylcyclo-propylcarbamoyl)-4-(7-methoxy-2-phenylquinolin-4-yloxy)-pyrrolidine-1-carbonyl]-2,2-dimethylpropyl}carbamic acid tert-butyl ester] as the compound, how does the pIC50 [1, 3] read?
Answer: > 7.30

Question: And the pEC50 ([2]; Hepatitis C virus, Huh-7, 96 h)?
Answer: > 7.30

Question: With `C=CC1C[C@]1(NC(=O)[C@@H]1C[C@@H](Oc2cc(-c3ccccc3)nc3cc(OC)ccc23)CN1C(=O)[C@@H](NC(=O)OC(C)(C)C)C(C)(C)C)C(=O)NS(=O)(=O)C1CCCC1` (stereo in doubt) [Compound 12, {1-[2-(1-Cyclopentanesulfonylaminocarbonyl-2-vinylcyclopropylcarbamoyl)-4-(7-methoxy-2-phenylquinolin-4-yloxy)-pyrrolidine-1-carbonyl]-2,2-dimethylpropyl}carbamic acid tert-butyl ester] as the compound, how does the pIC50 [1, 3] read?
Answer: > 6.30

Question: And the pEC50 ([2]; Hepatitis C virus, Huh-7, 96 h)?
Answer: > 6.30

Question: `C=CC1C[C@]1(NC(=O)[C@@H]1C[C@@H](Oc2cc(-c3ccccc3)nc3cc(OC)ccc23)CN1C(=O)[C@@H](NC(=O)OC(C)(C)C)C(C)(C)C)C(=O)NS(=O)(=O)C1CCCCC1` (stereo in doubt) [Compound 13, {1-[2-(1-Cyclohexanesulfonylaminocarbonyl-2-vinylcyclopropylcarbamoyl)-4-(7-methoxy-2-phenylquinolin-4-yloxy)pyrrolidine-1-carbonyl]-2,2-dimethylpropyl}carbamic acid tert-butyl ester] was tested. Which pIC50 [1, 3] did it give?
Answer: > 6.30

Question: What about the pEC50 ([2]; Hepatitis C virus, Huh-7, 96 h) of the same compound?
Answer: > 6.30

Question: What does the source list for `C=CC1C[C@]1(NC(=O)[C@@H]1C[C@@H](Oc2cc(-c3ccccc3)nc3cc(OC)ccc23)CN1C(=O)[C@@H](NC(=O)OC(C)(C)C)C(C)(C)C)C(=O)NS(=O)(=O)CC(C)(C)C` (stereo in doubt) [Compound 14, {1-[2-[1-(2,2-Dimethylpropane-1-sulfonylaminocarbonyl)-2-vinylcyclopropylcarbamoyl]-4-(7-methoxy-2-phenylquinolin-4-yloxy)pyrrolidine-1-carbonyl]-2,2-dimethylpropyl}-carbamic acid tert-butyl ester]?
Answer: pIC50 [1, 3]: > 6.30; pEC50 ([2]; Hepatitis C virus, Huh-7, 96 h): > 6.30
